Reference: ChEMBL document CHEMBL1201862, “PubChem BioAssay data set” (2004)
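Protocol summary: plate cells (96-well), add compound at 5 concentrations, incubate 48 h, interpolate endpoints linearly. GI50: concentration for 50% inhibition of growth.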 Activity calls are given as the source filed them. No stated cut-off is given here; in the data, active = GI50 up to about 1.1 µM and inactive = higher.

How the values were obtained:
Experiment in all cases: NCI-60 cell line screen, 48 h
UACC-62 = test system: UACC-62
Malme-3M = test system: Malme-3M
SN12C = test system: SN12C
A549 = test system: A549
UO-31 = test system: UO-31
A498 = test system: A498
PC-3 = test system: PC-3
OVCAR-5 = test system: OVCAR-5
K562 = test system: K562
HT-29 = test system: HT-29
MOLT-4 = test system: MOLT-4
UACC-257 = test system: UACC-257
OVCAR-4 = test system: OVCAR-4
MCF7 = test system: MCF7
NCI-H522 = test system: NCI-H522
OVCAR-3 = test system: OVCAR-3
COLO 205 = test system: COLO 205
HOP-92 = test system: HOP-92
NCI/ADR-RES = test system: NCI/ADR-RES
Hs-578T = test system: Hs-578T

| Compound | GI50 (UACC-62) | GI50 (Malme-3M) | GI50 (SN12C) | GI50 (A549) | GI50 (UO-31) | GI50 (A498) | GI50 (PC-3) | GI50 (OVCAR-5) | GI50 (K562) | GI50 (HT-29) | GI50 (MOLT-4) | GI50 (UACC-257) | GI50 (OVCAR-4) | GI50 (MCF7) | GI50 (NCI-H522) | GI50 (OVCAR-3) | GI50 (COLO 205) | GI50 (HOP-92) | GI50 (NCI/ADR-RES) | GI50 (Hs-578T) |
| --- | --- | --- | --- | --- | --- | --- | --- | --- | --- | --- | --- | --- | --- | --- | --- | --- | --- | --- | --- | --- |
| Cc1ccc(/N=N/C(=O)NNc2ccc(C)c([N+](=O)[O-])c2)cc1[N+](=O)[O-] | 13.9 µM (inactive) | 30.8 µM (inactive) | 31.4 µM (inactive) | 28.8 µM (inactive) | 15.2 µM (inactive) | 14.7 µM (inactive) | 18.7 µM (inactive) | 30.1 µM (inactive) | 11.9 µM (inactive) | 53.2 µM (inactive) | 12.5 µM (inactive) | 25.8 µM (inactive) | 19.4 µM (inactive) | 23.2 µM (inactive) | 20.6 µM (inactive) | 28.1 µM (inactive) | – | – | – | – |
| c1ccc(CNc2nncc3[nH]cnc23)cc1 | > 100 µM (inactive) | 59.6 µM (inactive) | > 100 µM (inactive) | > 100 µM (inactive) | > 100 µM (inactive) | > 100 µM (inactive) | > 100 µM (inactive) | > 100 µM (inactive) | > 100 µM (inactive) | > 100 µM (inactive) | > 100 µM (inactive) | > 100 µM (inactive) | > 100 µM (inactive) | > 100 µM (inactive) | > 100 µM (inactive) | > 100 µM (inactive) | > 100 µM (inactive) | 69.8 µM (inactive) | > 100 µM (inactive) | – |
| C/C(=C\C(=N\NC(=N)N)c1ccccc1)c1ccccc1 | 1.15 µM (inactive) | 1.16 µM (inactive) | 0.454 µM (active) | 0.577 µM (active) | – | – | 0.313 µM (active) | 0.64 µM (active) | 1.53 µM (inactive) | 0.354 µM (active) | 0.261 µM (active) | – | 0.321 µM (active) | 0.321 µM (active) | 0.452 µM (active) | 0.409 µM (active) | 0.0348 µM (active) | 0.716 µM (active) | 2.78 µM (inactive) | 1.32 µM (inactive) |
| COc1ccc(/N=N/c2c(O)ccc3ccccc23)cc1 | 15.6 µM (inactive) | 14.1 µM (inactive) | > 100 µM (inactive) | 17.9 µM (inactive) | 31.3 µM (inactive) | – | 28.2 µM (inactive) | 17.5 µM (inactive) | – | 17 µM (inactive) | > 100 µM (inactive) | > 100 µM (inactive) | 15.4 µM (inactive) | – | 23 µM (inactive) | 28.6 µM (inactive) | > 100 µM (inactive) | 19.6 µM (inactive) | 22.4 µM (inactive) | 11.2 µM (inactive) |
| NC(=S)NS(=O)(=O)c1ccc(Cl)cc1 | > 100 µM (inactive) | > 100 µM (inactive) | > 100 µM (inactive) | > 100 µM (inactive) | – | – | > 100 µM (inactive) | > 100 µM (inactive) | > 100 µM (inactive) | > 100 µM (inactive) | > 100 µM (inactive) | > 100 µM (inactive) | > 100 µM (inactive) | > 100 µM (inactive) | > 100 µM (inactive) | > 100 µM (inactive) | > 100 µM (inactive) | – | > 100 µM (inactive) | > 100 µM (inactive) |
| CCOc1ccc(NC(=O)/C(CC(=O)c2c[n+]([O-])c3ccccc3[n+]2[O-])=N\OCCCc2ccccc2)cc1 | > 100 µM (inactive) | > 100 µM (inactive) | > 100 µM (inactive) | > 100 µM (inactive) | > 100 µM (inactive) | > 100 µM (inactive) | – | > 100 µM (inactive) | 62.5 µM (inactive) | > 100 µM (inactive) | > 100 µM (inactive) | > 100 µM (inactive) | > 100 µM (inactive) | – | > 100 µM (inactive) | > 100 µM (inactive) | > 100 µM (inactive) | 16.9 µM (inactive) | – | – |
| N#Cc1c(O)c2ccccc2[nH]c1=O | > 100 µM (inactive) | > 100 µM (inactive) | > 100 µM (inactive) | > 100 µM (inactive) | > 100 µM (inactive) | > 100 µM (inactive) | > 100 µM (inactive) | > 100 µM (inactive) | > 100 µM (inactive) | > 100 µM (inactive) | > 100 µM (inactive) | > 100 µM (inactive) | > 100 µM (inactive) | > 100 µM (inactive) | > 100 µM (inactive) | > 100 µM (inactive) | > 100 µM (inactive) | > 100 µM (inactive) | > 100 µM (inactive) | – |
| BrCCCCCOc1ccc(-c2c3ccccc3c(-c3ccc(OCCCCCBr)cc3)c3ccccc23)cc1 | > 100 µM (inactive) | – | > 100 µM (inactive) | > 100 µM (inactive) | > 100 µM (inactive) | – | > 100 µM (inactive) | > 100 µM (inactive) | > 100 µM (inactive) | > 100 µM (inactive) | > 100 µM (inactive) | > 100 µM (inactive) | > 100 µM (inactive) | > 100 µM (inactive) | – | – | > 100 µM (inactive) | – | > 100 µM (inactive) | 35.7 µM (inactive) |
| CCOP(=O)(OCC)OC(C#N)c1ccc(-c2ccccc2)cc1 (configuration not stated) | 13.9 µM (inactive) | 19.6 µM (inactive) | 19 µM (inactive) | 18.4 µM (inactive) | 47.3 µM (inactive) | 24.2 µM (inactive) | – | 54.1 µM (inactive) | 20.3 µM (inactive) | 17.9 µM (inactive) | 14.2 µM (inactive) | 20.8 µM (inactive) | 21.1 µM (inactive) | – | 14.9 µM (inactive) | 19.1 µM (inactive) | 18.2 µM (inactive) | 14.4 µM (inactive) | – | – |
| Cc1cc(N(CCC#N)CCC#N)ccc1/C=C1N=C(/C=C\c2ccccc2)N(NC(=O)CC(=O)Nc2ccccc2Cl)C\1=O | > 100 µM (inactive) | > 100 µM (inactive) | > 100 µM (inactive) | > 100 µM (inactive) | > 100 µM (inactive) | > 100 µM (inactive) | – | > 100 µM (inactive) | > 100 µM (inactive) | > 100 µM (inactive) | > 100 µM (inactive) | > 100 µM (inactive) | > 100 µM (inactive) | – | > 100 µM (inactive) | > 100 µM (inactive) | > 100 µM (inactive) | > 100 µM (inactive) | – | – |
| CCC1C(c2cccc(OC)c2O)c2cc3c(cc2OC1N1CCCC1)OCO3 (configuration not stated) | 17.5 µM (inactive) | – | 18.1 µM (inactive) | 17.4 µM (inactive) | 14.1 µM (inactive) | – | 16.6 µM (inactive) | 20.1 µM (inactive) | 11.8 µM (inactive) | 16.5 µM (inactive) | 12.8 µM (inactive) | 17.8 µM (inactive) | – | 22.2 µM (inactive) | 10.7 µM (inactive) | 13.8 µM (inactive) | > 10 µM (inactive) | – | 15.7 µM (inactive) | 3.75 µM (inactive) |
| COC1(OC)N=C(N)C2(C#N)C3(C(=O)N(C(C)C)N=C3C)C12C#N (configuration not stated) | > 100 µM (inactive) | > 100 µM (inactive) | > 100 µM (inactive) | > 100 µM (inactive) | > 100 µM (inactive) | > 100 µM (inactive) | > 100 µM (inactive) | > 100 µM (inactive) | > 100 µM (inactive) | > 100 µM (inactive) | > 100 µM (inactive) | > 100 µM (inactive) | > 100 µM (inactive) | > 100 µM (inactive) | > 100 µM (inactive) | 49.7 µM (inactive) | > 100 µM (inactive) | > 100 µM (inactive) | > 100 µM (inactive) | – |
| CC1(C)COC(c2cccnc2/C=N/O)=N1 | > 100 µM (inactive) | > 100 µM (inactive) | > 100 µM (inactive) | > 100 µM (inactive) | > 100 µM (inactive) | > 100 µM (inactive) | – | > 100 µM (inactive) | > 100 µM (inactive) | > 100 µM (inactive) | > 100 µM (inactive) | > 100 µM (inactive) | > 100 µM (inactive) | – | > 100 µM (inactive) | > 100 µM (inactive) | > 100 µM (inactive) | > 100 µM (inactive) | – | – |
| COc1cc2c(cc1OCCCOS(C)(=O)=O)N=C[C@@H]1CCCN1C2=O | > 100 µM (inactive) | > 100 µM (inactive) | > 100 µM (inactive) | > 100 µM (inactive) | > 100 µM (inactive) | > 100 µM (inactive) | – | – | – | > 100 µM (inactive) | > 100 µM (inactive) | > 100 µM (inactive) | – | > 100 µM (inactive) | > 100 µM (inactive) | > 100 µM (inactive) | > 100 µM (inactive) | > 100 µM (inactive) | > 100 µM (inactive) | > 100 µM (inactive) |
| NN1C(=O)C(CCO)S/C1=N/N=C1/SC(CCO)C(=O)N1N (configuration not stated) | > 100 µM (inactive) | > 100 µM (inactive) | > 100 µM (inactive) | > 100 µM (inactive) | > 100 µM (inactive) | > 100 µM (inactive) | – | > 100 µM (inactive) | > 100 µM (inactive) | > 100 µM (inactive) | > 100 µM (inactive) | > 100 µM (inactive) | > 100 µM (inactive) | – | > 100 µM (inactive) | > 100 µM (inactive) | > 100 µM (inactive) | > 100 µM (inactive) | – | – |
| Cc1cc(C)nc(NS(=O)(=O)c2ccc(Nc3c4ccccc4nc4c(C(=O)Nc5ccc(S(=O)(=O)N=C(N)N)cc5)cccc34)cc2)n1 | > 100 µM (inactive) | 78.7 µM (inactive) | > 100 µM (inactive) | > 100 µM (inactive) | 85.3 µM (inactive) | > 100 µM (inactive) | – | 51.8 µM (inactive) | > 100 µM (inactive) | > 100 µM (inactive) | > 100 µM (inactive) | > 100 µM (inactive) | > 100 µM (inactive) | – | > 100 µM (inactive) | > 100 µM (inactive) | > 100 µM (inactive) | 37.5 µM (inactive) | – | – |
